Measured values from patent US11629123B2, “Selenopsammaplin A and derivative thereof, preparation method therefor, and composition for preventing and treating cancer, containing same as active ingredients” (priority 2017, dated 2023).
Entries after “also recorded” stand apart in the source; their conditions may differ. Read-outs that look alike come from different tables or passages of the source.

What was measured:
Type in all cases: cell-based
[1] = system: colorectal cancer cell line HCT116; assay: cells
Method: (§1) To confirm the in vitro growth inhibitory efficacy of the samples prepared in Examples 1 to 28 against human lung cancer and colorectal cancer cell lines, the experiments were performed as follows by applying the method described in the literature (Lee S K et al ([…]) Chem Biol Interact 115:215-28). A human lung cancer cell line A549 and a colorectal cancer cell line HCT116 were acquired from the American Type Culture Collection (ATCC, Manassas, Va., USA) and used.
(§2) A549, HCT116 cells were subcultured once or twice weekly under conditions of 37° C. and 5% CO2 using Roswell Park Memorial Institute (RPMI) Medium 1640 (RPMI 1640) containing 10% heat-inactivated Fetal Bovine Serum (FBS), 100 units/mL penicillin, 100 μg/mL streptomycin, and 250 ng/mL amphotericin B. All cells were thawed from liquid nitrogen, subcultured three times or more, and then used in the experiment.
(§3) The effects of the compounds obtained in Examples 1 to 28 on cell growth were measured by a sulforhodamine B (SRB) method (Lee et al (1998) Chem Biol Interact 115: 215-28).
(§4) Specifically, the human lung cancer and colon cancer cell lines used in the present invention were subcultured in a RPMI medium containing 10% FBS, 1% PSF, and the like, 10 μl of a sample dissolved in 10% DMSO and 190 μl (5×10^4 cells/ml) of the cell suspension were placed in each well of a 96-well plate. 190 μl of the cell suspension was placed in at least 16 wells, cultured for 30 minutes, and used as a negative control (zero-day control) before the experiment. The cultured cells were fixed with 10% trichloroacetic acid (TCA) and then stained with an SRB solution, the staining solution was dissolved with 10 mM Tris-base, and absorbance was measured at 515 nm. Using the cell culture in 10% DMSO as a control, cell viability according to the treatment with each test sample was measured using the following Equation 1. % Cell viability=(OD(sample)−OD(0-day))/(OD(10% DMSO)−OD(0-day))×100 [Equation 1]
(§5) When the control in which the sample was not treated was defined as 100%, the value of the sample treatment group was shown as a percentage with respect to the control, and each test sample treatment was determined by the mean value±SEM of the duplicate or triplicate test. The IC50 value is the concentration of the test sample for 50% viability.

[2] = system: human lung cancer cell line A549; assay: cells
Method: as §1, §2, §3, §4, §5

[3] = system: human lung cancer and colorectal cancer cell lines; assay: In vitro growth inhibition (SRB), summary over both cell lines; conditions: compared with control compound etoposide
Method: as §1, §2, §3, §4, §5

[4] = Homo sapiens, HCT-116, read-out: HCT116-LC50, Table 3, SRB, concentration for 50% viability
[5] = Homo sapiens, A549, read-out: A549-LC50, Table 3, SRB, concentration for 50% viability
[6] = Homo sapiens, HCT-116, read-out: HCT116-LC50
[7] = Homo sapiens, A549, read-out: A549-LC50
[8] = Homo sapiens, HCT-116, read-out: HCT116-LC50, Table 2, SRB, concentration for 50% viability
[9] = Homo sapiens, A549, read-out: A549-LC50, Table 2, SRB, concentration for 50% viability

| Structure (SMILES) | CC50 [1, 4] [nM] | CC50 [2, 5] [nM] | CC50 [1, 6] [nM] | CC50 [2, 7] [nM] | further results |
| --- | --- | --- | --- | --- | --- |
| O=C(NCC[Se]Sc1ccccc1)/C(Cc1ccc(O)c(Cl)c1)=N/O [SSM-16, (E)-3-(3-chloro-4-hydroxyphenyl)-2-(hydroxyimino)-N-(2-((phenylthio)selanyl)ethyl)propanamide] | 90 | 110 |  |  |  |
| O=C(NCC[Se]Sc1ccccc1)/C(Cc1ccc2ccccc2c1)=N/O [SSM-28, (E)-2-(hydroxyimino)-3-(naphthalen-2-yl)-N-(2-((phenylthio)selanyl)ethyl)propanamide] | 20 | 120 |  |  |  |
| O=C(NCC[Se]Sc1ccccc1)/C(Cc1ccccc1)=N/O [SSM-18, (E)-2-(hydroxyimino)-3-phenyl-N-(2-((phenylthio)selanyl)ethyl)propanamide] | 130 | 280 |  |  |  |
| O=C(NCC[Se][Se]CCNC(=O)/C(Cc1ccc([N+](=O)[O-])cc1)=N/O)/C(Cc1ccc([N+](=O)[O-])cc1)=N/O [SSM-12, (2E,2′E)-N,N′-(diselanediylbis(ethane-2,1-diyl))bis(2-(hydroxyimino)-3-(4-nitrophenyl)propanamide)] |  |  | 90 | 90 | cancer cell growth inhibitory activity compared to etoposide [3]: higher inhibitory activity than a control compound etoposide; also recorded: excellent cancer cell growth inhibitory potential even compared to etoposide |
| O=C(NCC[Se][Se]CCNC(=O)/C(Cc1ccc(F)c(F)c1)=N/O)/C(Cc1ccc(F)c(F)c1)=N/O [SSM-8, (2E,2′E)-N,N′-(diselanediylbis(ethane-2,1-diyl))bis(3-(3,4-difluorophenyl)-2-(hydroxyimino)propanamide)] |  |  | 190 | 200 |  |
| COc1cc([C@@H]2c3cc4c(cc3[C@@H](O[C@@H]3O[C@@H]5CO[C@@H](C)O[C@H]5[C@H](O)[C@H]3O)[C@H]3COC(=O)[C@H]23)OCO4)cc(OC)c1O [Etoposide, reference compound] | 610 | 710 |  |  | CC50 [1, 8]: 900 nM; CC50 [2, 9]: 420 nM |
| O=C(NCCSSCCNC(=O)/C(Cc1ccc(O)c(Br)c1)=N/O)/C(Cc1ccc(O)c(Br)c1)=N/O [Psammaplin A] |  |  |  |  | CC50 ([1]; Table 2, SRB, concentration for 50% viability, read-out: HCT116-LC50): 610 nM; CC50 ([1]; Table 3, SRB, concentration for 50% viability, read-out: HCT116-LC50): 610 nM; CC50 ([2]; Table 2, SRB, concentration for 50% viability, read-out: A549-LC50): 1760 nM; CC50 ([2]; Table 3, SRB, concentration for 50% viability, read-out: A549-LC50): 1760 nM |
| O=C(NCC[Se][Se]CCNC(=O)/C(Cc1ccc(Cl)c(Cl)c1)=N/O)/C(Cc1ccc(Cl)c(Cl)c1)=N/O [SSM-9, (2E,2′E)-N,N′-(diselanediylbis(ethane-2,1-diyl))bis(3-(3,4-dichlorophenyl)-2-(hydroxyimino)propanamide)] |  |  | 520 | 280 |  |
| O=C(NCC[Se]Sc1ccccc1)/C(Cc1ccc(Cl)cc1)=N/O [SSM-20, (E)-3-(4-chlorophenyl)-2-(hydroxyimino)-N-(2-((phenylthio)selanyl)ethyl)propanamide] |  |  | 330 | 490 |  |
| O=C(NCC[Se][Se]CCNC(=O)/C(Cc1ccccc1)=N/O)/C(Cc1ccccc1)=N/O [SSM-4, (2E,2′E)-N,N′-(diselanediylbis(ethane-2,1-diyl))bis(2-(hydroxyimino)-3-phenylpropanamide)] |  |  | 90 | 80 | cancer cell growth inhibitory activity compared to etoposide [3]: higher inhibitory activity than a control compound etoposide; also recorded: excellent cancer cell growth inhibitory potential even compared to etoposide |
| O=C(NCC[Se][Se]CCNC(=O)/C(Cc1ccc(O)c(F)c1)=N/O)/C(Cc1ccc(O)c(F)c1)=N/O [SSM-3, (2E,2′E)-N,N′-(diselanediylbis(ethane-2,1-diyl))bis(3-(3-fluoro-4-hydroxyphenyl)-2-(hydroxyimino)propanamide)] |  |  |  |  | CC50 [1, 8]: 50 nM; CC50 [2, 9]: 60 nM; cancer cell growth inhibitory activity compared to etoposide [3]: higher inhibitory activity than a control compound etoposide; also recorded: excellent cancer cell growth inhibitory potential even compared to etoposide |
| O=C(NCC[Se]Sc1ccccc1)/C(Cc1ccc(O)c(Br)c1)=N/O [SSM-15, (E)-3-(3-bromo-4-hydroxyphenyl)-2-(hydroxyimino)-N-(2-((phenylthio)selanyl)ethyl)propanamide] | 10 | 100 |  |  |  |
| O=C(NCC[Se]Sc1ccccc1)/C(Cc1ccc(O)c(F)c1)=N/O [SSM-17, (E)-3-(3-fluoro-4-hydroxyphenyl)-2-(hydroxyimino)-N-(2-((phenylthio)selanyl)ethyl)propanamide] | 200 | 290 |  |  |  |
| O=C(NCC[Se]Sc1ccccc1)/C(Cc1ccc(F)c(F)c1)=N/O [SSM-22, (E)-3-(3,4-difluorophenyl)-2-(hydroxyimino)-N-(2-((phenylthio)selanyl)ethyl)propanamide] |  |  | 310 | 480 |  |
| O=C(NCC[Se][Se]CCNC(=O)/C(Cc1ccc(F)cc1)=N/O)/C(Cc1ccc(F)cc1)=N/O [SSM-5, (2E,2′E)-N,N′-(diselanediylbis(ethane-2,1-diyl))bis(3-(4-fluorophenyl)-2-(hydroxyimino)propanamide)] |  |  |  |  | CC50 [1, 8]: 110 nM; CC50 [2, 9]: 100 nM |
| O=C(NCC[Se]Sc1ccccc1)/C(Cc1ccc(Br)cc1)=N/O [SSM-21, (E)-3-(4-bromophenyl)-2-(hydroxyimino)-N-(2-((phenylthio)selanyl)ethyl)propanamide] | 180 | 510 |  |  |  |
| O=C(NCC[Se][Se]CCNC(=O)/C(Cc1ccc(Br)cc1)=N/O)/C(Cc1ccc(Br)cc1)=N/O [SSM-7, (2E,2′E)-N,N′-(diselanediylbis(ethane-2,1-diyl))bis(3-(4-bromophenyl)-2-(hydroxyimino)propanamide)] |  |  |  |  | CC50 [1, 8]: 300 nM; CC50 [2, 9]: 320 nM |
| CCOc1ccc(C/C(=N\O)C(=O)NCC[Se]Sc2ccccc2)cc1 [SSM-24, (E)-3-(4-ethoxyphenyl)-2-(hydroxyimino)-N-(2-((phenylthio)selanyl)ethyl)propanamide] | 130 | 330 |  |  |  |
| CC(C)(C)c1ccc(C/C(=N\O)C(=O)NCC[Se][Se]CCNC(=O)/C(Cc2ccc(C(C)(C)C)cc2)=N/O)cc1 [SSM-13, (2E,2′E)-N,N′-(diselanediylbis(ethane-2,1-diyl))bis(3-(4-(tert-butyl)phenyl)-2-(hydroxyimino)propanamide)] |  |  | 130 | 100 |  |
| O=C(NCC[Se][Se]CCNC(=O)/C(Cc1ccc2ccccc2c1)=N/O)/C(Cc1ccc2ccccc2c1)=N/O [SSM-14, (2E,2′E)-N,N′-(diselanediylbis(ethane-2,1-diyl))bis(2-(hydroxyimino)-3-(naphthalen-2-yl)propanamide)] |  |  |  |  | CC50 [1, 8]: 120 nM; CC50 [2, 9]: 380 nM |
| O=C(NCC[Se][Se]CCNC(=O)/C(Cc1ccc(OCc2ccccc2)cc1)=N/O)/C(Cc1ccc(OCc2ccccc2)cc1)=N/O [SSM-11, (2E,2′E)-N,N′-(diselanediylbis(ethane-2,1-diyl))bis(3-(4-(benzyloxy)phenyl)-2-(hydroxyimino)propanamide)] |  |  |  |  | CC50 [1, 8]: 100 nM; CC50 [2, 9]: 140 nM |
| O=C(NCC[Se]Sc1ccccc1)/C(Cc1ccc(F)cc1)=N/O [SSM-19, (E)-3-(4-fluorophenyl)-2-(hydroxyimino)-N-(2-((phenylthio)selanyl)ethyl)propanamide] | 330 | 490 |  |  |  |
| O=C(NCC[Se][Se]CCNC(=O)/C(Cc1ccc(Cl)cc1)=N/O)/C(Cc1ccc(Cl)cc1)=N/O [SSM-6, (2E,2′E)-N,N′-(diselanediylbis(ethane-2,1-diyl))bis(3-(4-chlorophenyl)-2-(hydroxyimino)propanamide)] |  |  | 280 | 250 |  |
| O=C(NCC[Se]Sc1ccccc1)/C(Cc1ccc(OCc2ccccc2)cc1)=N/O [SSM-25, (E)-3-(4-(benzyloxy)phenyl)-2-(hydroxyimino)-N-(2-((phenylthio)selanyl)ethyl)propanamide] | 80 | 180 |  |  |  |
| O=C(NCC[Se]Sc1ccccc1)/C(Cc1ccc(Cl)c(Cl)c1)=N/O [SSM-23, (E)-3-(3,4-dichlorophenyl)-2-(hydroxyimino)-N-(2-((phenylthio)selanyl)ethyl)propanamide] |  |  | 50 | 280 |  |
| O=C(NCC[Se]Sc1ccccc1)/C(Cc1ccc([N+](=O)[O-])cc1)=N/O [SSM-26, (E)-2-(hydroxyimino)-3-(4-nitrophenyl)-N-(2-((phenylthio)selanyl)ethyl)propanamide] |  |  | 120 | 120 |  |
